Data from PMC7738880, “Identification of novel CD44v6-binding peptides that block CD44v6 and deliver a pro-apoptotic peptide to tumors to inhibit tumor growth and metastasis in mice” (Theranostics, 2021).
Residues, ends and D or L forms follow the SMILES beside them.

What was measured:
MDA-MB231 cells [1] = assay: Saturation cell binding assay, MDA-MB231; set-up: species or system human; settings: biotin-labeled peptide 0-256 µM, 4 °C, 1 h
Method: Supplementary Information
Supplementary Materials and Methods
Saturation binding assays to determine the cellular binding affinities of peptides Cells (5 × 10^3 cells per well in a 96-well plate) were incubated with 1% bovine serum albumin (BSA) for 30 min and with different concentrations of biotin-labeled peptides (0, 2, 4, 8, 16, 32, 64, 128, and 256 µM) at 4 °C for 1 h. After washing, the cells were incubated with horseradish peroxidase-conjugated neutravidin (1:10,000 dilution; ThermoFisher Scientific, Waltham, MA) for 30 min at room temperature. Enzymatic activity was detected using a 3,3ʹ,5,5ʹ-tetramethylbenzidine substrate (ThermoFisher Scientific), and the reaction was stopped using 2 M sulfuric acid. The absorbance at 450 nm was measured in each well using a microplate reader (Tecan, Mannedorf, Switzerland). The KD values were then calculated using GraphPad Prism 6 software (GraphPad Inc., La Jolla, CA). […]
10 µM biotin-labeled CD44v6-binding peptides at 4 °C for 1 h. […]
Scientific) for 30 min at room temperature. […]

[2] = biological target: T1, recombinant human CD44v6-Fc protein (Homo sapiens, UniProt P16070); assay: SPR analysis of peptide binding affinity to CD44v6-Fc; settings: biotin-conjugated peptide on streptavidin chip, CD44v6-Fc 0.125-2 µM, steady-state 1:1 fit, pH 7.4
T1 sequence (P16070 386-428 limits assumed): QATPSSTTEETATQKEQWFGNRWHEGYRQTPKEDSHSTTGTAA
Method: (§1) The binding affinity (KD) of CD44v6-binding peptides to the CD44v6 protein was measured using an SPR instrument (Reichert Technologies, Depew, NY). A streptavidin chip was used as the immobilization substrate and exposed to biotin-labeled peptides (25 μΜ) at 5 μL/min for 50 min. The streptavidin only surface was used for the reference surface. All SPR signals were corrected by subtraction with the response of the reference surface. After washing, the chip was flowed with a solution of CD44v6-Fc or CD44-Fc protein (R&D Systems, Minneapolis, MN) in binding buffer (137 mM NaCl, 10 mM phosphate, 2.7 mM KCl pH 7.4, 62.5 µM BSA, and 0.005% Tween-20) at concentrations of 0.125, 0.25, 0.5, 1, and 2 μM at 10 μL/min for 3 min. Five concentrations (0.125, 0.25, 0.5, 1, and 2 µM) of CD44v6-Fc and CD44-Fc were used in a single-cycle dynamic SPR measurements. Resonance units were recorded and analyzed using Scrubber 2.0 software (BioLogic Software, Campbell, Australia). KD values were calculated by analyzing the steady-state binding data by fitting the curve of binding level against concentration with a 1:1 binding model (GraphPad Prism 7.0 software).

[3] = test system: MDA-MB231 subcutaneous tumors; assay: In vivo whole-body and ex vivo fluorescence imaging of tumor homing; set-up: species or system BALB/c nude mouse; settings: Flamma 675 NIR dye-labeled peptide 1 mg/kg i.v.; for ex vivo accumulation in tumors versus organs: 6 h post-injection, n = 3/group; for in vivo fluorescence signals at tumor areas: imaging 1-6 h
Method: Mice for animal experiments were purchased from Orient Bio Inc. (Seongnam, Korea) and maintained in conformance with the Guidelines of the Institutional Animal Care and Use Committee of Kyungpook National University (permission no. 2014-1-121). A total of 1 × 10^6 MDA-MB231 cells were subcutaneously injected into the right flank of each 6-week-old female BALB/c nude mouse. When the tumor reached a volume of approximately 100 mm^3, the mouse was injected intravenously with Flamma 675 NIR fluorescence dye-labeled peptides (1 mg/kg body weight). Whole-body fluorescence imaging was performed under inhalational anesthesia using an IVIS imaging system (Perkin Elmer). After in vivo imaging, each mouse was euthanized, the tumor and control organs (liver, kidney, spleen, heart, and lung) were isolated, and ex vivo images were obtained using the IVIS imaging system.

[4] = biological target: T2, CD44v6 from MDA-MB231 cell lysates (Homo sapiens, UniProt P16070); assay: Pull-down assay with biotin-labeled peptides; type: binding; settings: biotinylated peptide 25 µM, streptavidin beads, immunoblotting
T2 sequence (P16070 386-428 limits assumed): T1 sequence (P16070 386-428 limits assumed)
Method: Biotin-labeled peptides were incubated with streptavidin magnetic beads (Bioclone Inc., San Diego, CA) at room temperature for 30-60 min under gentle rotation. MDA-MB231 cells were then lysed using a cell lysis reagent (ThermoFisher Scientific) containing protease inhibitors. The lysates were incubated with the biotinylated peptide (25 µM) and streptavidin bead complexes at room temperature for 30-60 min under gentle rotation. In another set of assays, the recombinant human CD44v6 protein was used instead of the cell lysates. The complexes were pulled down and incubated with an elution buffer containing 2 mM D-biotin (Bioclone Inc.) for 5-10 min, and the eluates were collected and subjected to electrophoresis.

[5] = biological target: T3, recombinant human CD44-Fc protein (Homo sapiens, UniProt P16070); assay: SPR analysis of peptide binding to CD44-Fc; settings: biotin-conjugated peptide on streptavidin chip, CD44-Fc 0.125-2 µM
T3 construct: Fc; purchased R&D Systems
T3 sequence (P16070 21-361 isoform P16070-12 limits assumed): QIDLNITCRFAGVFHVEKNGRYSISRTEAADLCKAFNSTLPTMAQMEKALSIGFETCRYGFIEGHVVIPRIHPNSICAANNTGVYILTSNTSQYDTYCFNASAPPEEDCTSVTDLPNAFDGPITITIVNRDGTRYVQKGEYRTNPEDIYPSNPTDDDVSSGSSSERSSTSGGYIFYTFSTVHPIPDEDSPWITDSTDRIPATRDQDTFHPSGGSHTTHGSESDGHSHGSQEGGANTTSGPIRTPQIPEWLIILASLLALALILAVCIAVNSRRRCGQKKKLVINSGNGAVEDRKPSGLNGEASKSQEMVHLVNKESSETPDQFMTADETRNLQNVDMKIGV
Method: as §1

MDA-MB231 cells [6] = assay: Transwell cell migration and invasion assays, MDA-MB231; type: cell-based, human; settings: peptide 20 µM, HGF 25 ng/mL, 24 h
Method: Transwell chambers (24-wells) with 8 μm pores were obtained from Corning (Corning, NY). MDA-MB231 and 4T1 cells (1 × 10^6 cells) were harvested, resuspended in 200 μL of DMEM containing CD44v6-binding peptides (20 µM), and then seeded into the upper chamber of the transwell chambers. The lower chamber was filled with 600 μL of DMEM containing 25 ng/mL HGF. After 24 h of incubation, cells that migrated into the reverse side of the transwell membrane were fixed with methanol, stained with crystal violet, and then counted under a light microscope. An average of five visual fields was obtained. For invasion assays, the transwell membrane was pre-coated with 300 µg/mL of Matrigel (Corning).

SMILES | Kd (MDA-MB231 cells [1]) [µM] | Kd [2] [µM] | ex vivo accumulation in tumors versus organs [3] | in vivo fluorescence signals at tumor areas [3] | pull-down of CD44v6 and CD44 from cell lysates [4] | pull-down of c-Met together with CD44v6 from cell lysates [4] | binding to the CD44 protein [5] | HGF-induced cell migration and invasion, MDA-MB231 (MDA-MB231 cells [6])
CC[C@H](C)[C@H](NC(=O)[C@@H](NC(=O)[C@H](CC(N)=O)NC(=O)[C@H](CC(C)C)NC(=O)[C@H](CC(N)=O)NC(=O)[C@@H](N)CS)[C@@H](C)O)C(=O)N[C@@H](CC(=O)O)C(=O)N[C@H](C(=O)N[C@@H](CS)C(=O)O)[C@@H](C)O [NLN] (H-CNLNTIDTC-OH; N-terminus and C-terminus assumed) | 12 ± 5 | 0.253 ± 0.079 | higher levels of NLN and NEW accumulation in tumors than in control organs | higher than those associated with the control peptide until 4 h | selectively pulled down CD44v6 but not CD44 | pulled down both c-Met and CD44v6 | did not bind | inhibited
CC(C)C[C@H](NC(=O)[C@H](CCC(N)=O)NC(=O)[C@H](Cc1c[nH]c2ccccc12)NC(=O)[C@H](CCC(=O)O)NC(=O)[C@H](CC(N)=O)NC(=O)[C@@H](N)CS)C(=O)N[C@@H](CCCCN)C(=O)N[C@@H](CO)C(=O)N[C@@H](CS)C(=O)O [NEW] (H-CNEWQLKSC-OH; N-terminus and C-terminus assumed) | 18 ± 6 | 0.085 ± 0.018 | higher levels of NLN and NEW accumulation in tumors than in control organs | higher than those associated with the control peptide until 4 h | selectively pulled down CD44v6 but not CD44 | pulled down only CD44v6 | did not bind | inhibited
